From ChEMBL document CHEMBL1147199, “Exploration of the correlation between the structure, hemolytic activity, and cytotoxicity of steroid saponins” (Bioorg Med Chem, 2007)

test: Cytotoxicity against human erythrocytes assessed as hemolytic activity after 60 mins; format: cell-based, Erythrocyte; conditions: read-out: HD50

Row | SMILES | HC50 at 1 h
1 | C/C=C/C=C/C(=O)NCCO[C@H]1[C@H](O)[C@H](O)[C@@H](O[C@H]2[C@H](O)[C@@H](O[C@H]3O[C@H](C)[C@@H](O)[C@H](O)[C@@H]3O)[C@H](O[C@H]3CC[C@@]4(C)C(=CC[C@H]5[C@@H]6C[C@@H]7O[C@]8(CC[C@@H](C)CO8)[C@@H](C)[C@@H]7[C@@]6(C)CC[C@@H]54)C3)O[C@@H]2CO)O[C@@H]1C | 1.6 µM
2 | CCCCCCCCCCCCCC(=O)NCCO[C@H]1[C@H](O)[C@H](O)[C@@H](O[C@H]2[C@H](O)[C@@H](O[C@H]3O[C@H](C)[C@@H](O)[C@H](O)[C@@H]3O)[C@H](O[C@H]3CC[C@@]4(C)C(=CC[C@H]5[C@@H]6C[C@@H]7O[C@]8(CC[C@@H](C)CO8)[C@@H](C)[C@@H]7[C@@]6(C)CC[C@@H]54)C3)O[C@@H]2CO)O[C@@H]1C | > 50 µg/mL
3 | CC(=O)NCCO[C@H]1[C@H](O)[C@H](O)[C@@H](O[C@H]2[C@H](O)[C@@H](O[C@H]3O[C@H](C)[C@@H](O)[C@H](O)[C@@H]3O)[C@H](O[C@H]3CC[C@@]4(C)C(=CC[C@H]5[C@@H]6C[C@@H]7O[C@]8(CC[C@@H](C)CO8)[C@@H](C)[C@@H]7[C@@]6(C)CC[C@@H]54)C3)O[C@@H]2CO)O[C@@H]1C | 9.2 µM
4 | C[C@@H]1CC[C@@]2(OC1)O[C@H]1C[C@H]3[C@@H]4CC=C5C[C@@H](O[C@@H]6O[C@H](CNC(=O)/C=C/c7ccccc7)[C@@H](O[C@H]7O[C@H](C)[C@@H](O)[C@H](O)[C@@H]7O)[C@H](O)[C@H]6O[C@H]6O[C@H](C)[C@@H](O)[C@H](O)[C@@H]6O)CC[C@]5(C)[C@H]4CC[C@]3(C)[C@H]1[C@@H]2C | 11.8 µM
5 | C[C@@H]1CC[C@@]2(OC1)O[C@H]1C[C@H]3[C@@H]4CC=C5C[C@@H](O[C@@H]6O[C@H](CO)[C@@H](O[C@H]7O[C@H](C)[C@@H](OCCN=[N+]=[N-])[C@H](O)[C@@H]7O)[C@H](O)[C@H]6O[C@H]6O[C@H](C)[C@@H](O)[C@H](O)[C@@H]6O)CC[C@]5(C)[C@H]4CC[C@]3(C)[C@H]1[C@@H]2C | 9.7 µM
6 | C[C@@H]1CC[C@@]2(OC1)O[C@H]1C[C@H]3[C@@H]4CC=C5C[C@@H](O[C@@H]6O[C@H](CO)[C@@H](O[C@@H]7O[C@@H](C)[C@H](O)[C@@H](O)[C@H]7O)[C@H](O)[C@H]6O[C@@H]6O[C@@H](C)[C@H](O)[C@@H](O)[C@H]6O)CC[C@]5(C)[C@H]4CC[C@]3(C)[C@H]1[C@@H]2C [DIOSCIN] | 6.8 µM
7 | CCCCCCCCCCCCCC(=O)NC[C@H]1O[C@@H](O[C@H]2CC[C@@]3(C)C(=CC[C@H]4[C@@H]5C[C@@H]6O[C@]7(CC[C@@H](C)CO7)[C@@H](C)[C@@H]6[C@@]5(C)CC[C@@H]43)C2)[C@H](O[C@H]2O[C@H](C)[C@@H](O)[C@H](O)[C@@H]2O)[C@@H](O)[C@@H]1O[C@H]1O[C@H](C)[C@@H](O)[C@H](O)[C@@H]1O | > 50 µg/mL
8 | C[C@@H]1CC[C@@]2(OC1)O[C@H]1C[C@H]3[C@@H]4CC[C@H]5C[C@@H](O[C@@H]6O[C@H](CO)[C@H](O)[C@H](O)[C@H]6O[C@H]6O[C@H](C)[C@@H](O)[C@H](O)[C@@H]6O)[C@H](O)C[C@]5(C)[C@H]4CC[C@]3(C)[C@H]1[C@@H]2C | 7.5 µM
9 | C[C@@H]1CC[C@@]2(OC1)O[C@H]1C[C@H]3[C@@H]4CC[C@H]5C[C@@H](O[C@@H]6O[C@H](CO)[C@@H](O[C@H]7O[C@H](C)[C@@H](O)[C@H](O)[C@@H]7O)[C@H](O)[C@H]6O[C@H]6O[C@H](C)[C@@H](O)[C@H](O)[C@@H]6O)CC[C@]5(C)[C@H]4CC[C@]3(C)[C@H]1[C@@H]2C | 3 µM
10 | CCCCCC(=O)O[C@H]1C[C@@H]2[C@H](CC[C@]3(C)[C@@H]4[C@H](C[C@@H]23)O[C@]2(CC[C@@H](C)CO2)[C@H]4C)[C@@]2(C)C[C@@H](O)[C@H](O[C@@H]3O[C@H](CO)[C@@H](O[C@H]4O[C@H](C)[C@@H](O)[C@H](O)[C@@H]4O)[C@H](O)[C@H]3O[C@H]3O[C@H](C)[C@@H](O)[C@H](O)[C@@H]3O)C[C@H]12 | 7.6 µM
11 | C[C@@H]1CC[C@@]2(OC1)O[C@H]1C[C@H]3[C@@H]4CC=C5C[C@@H](O[C@@H]6O[C@H](CNS(=O)(=O)c7cccc8c(N(C)C)cccc78)[C@@H](O[C@H]7O[C@H](C)[C@@H](O)[C@H](O)[C@@H]7O)[C@H](O)[C@H]6O[C@H]6O[C@H](C)[C@@H](O)[C@H](O)[C@@H]6O)CC[C@]5(C)[C@H]4CC[C@]3(C)[C@H]1[C@@H]2C | 6.9 µM
12 | CCCCCCCCCCCCCCCCCC(=O)NC[C@H]1O[C@@H](O[C@H]2CC[C@@]3(C)C(=CC[C@H]4[C@@H]5C[C@@H]6O[C@]7(CC[C@@H](C)CO7)[C@@H](C)[C@@H]6[C@@]5(C)CC[C@@H]43)C2)[C@H](O[C@H]2O[C@H](C)[C@@H](O)[C@H](O)[C@@H]2O)[C@@H](O)[C@@H]1O[C@H]1O[C@H](C)[C@@H](O)[C@H](O)[C@@H]1O | > 50 µg/mL
13 | C[C@@H]1CC[C@@]2(OC1)O[C@H]1C[C@H]3[C@@H]4CC=C5C[C@@H](O[C@@H]6O[C@H](CO)[C@@H](O[C@H]7O[C@H](C)[C@@H](OCCNS(=O)(=O)c8cccc9c(N(C)C)cccc89)[C@H](O)[C@@H]7O)[C@H](O)[C@H]6O[C@H]6O[C@H](C)[C@@H](O)[C@H](O)[C@@H]6O)CC[C@]5(C)[C@H]4CC[C@]3(C)[C@H]1[C@@H]2C | 1.3 µM
14 | C[C@@H]1CC[C@@]2(OC1)O[C@H]1C[C@H]3[C@@H]4CC=C5C[C@@H](O[C@@H]6O[C@H](CO)[C@@H](O[C@H]7O[C@H](C)[C@@H](OCCNC(=O)c8ccccc8)[C@H](O)[C@@H]7O)[C@H](O)[C@H]6O[C@H]6O[C@H](C)[C@@H](O)[C@H](O)[C@@H]6O)CC[C@]5(C)[C@H]4CC[C@]3(C)[C@H]1[C@@H]2C | 49.3 µM
15 | CCCCCC(=O)O[C@H]1[C@H](O)[C@H](O)[C@@H](O[C@H]2[C@H](O)[C@@H](O[C@H]3O[C@H](C)[C@@H](O)[C@H](O)[C@@H]3O)[C@H](O[C@H]3CC[C@@]4(C)C(=CC[C@H]5[C@@H]6C[C@@H]7O[C@]8(CC[C@@H](C)CO8)[C@@H](C)[C@@H]7[C@@]6(C)CC[C@@H]54)C3)O[C@@H]2CO)O[C@@H]1C | 2.2 µM
16 | C[C@@H]1CC[C@@]2(OC1)O[C@H]1C[C@H]3[C@@H]4CC=C5C[C@@H](O[C@@H]6O[C@H](CO)[C@@H](O[C@H]7O[C@H](C)[C@@H](OCCNC(=O)c8ccccc8I)[C@H](O)[C@@H]7O)[C@H](O)[C@H]6O[C@H]6O[C@H](C)[C@@H](O)[C@H](O)[C@@H]6O)CC[C@]5(C)[C@H]4CC[C@]3(C)[C@H]1[C@@H]2C | 1.7 µM
17 | C[C@@H]1CC[C@@]2(OC1)O[C@H]1C[C@H]3[C@@H]4CC=C5C[C@@H](O[C@@H]6O[C@H](CO)[C@@H](O[C@H]7O[C@H](CO)[C@@H](O)[C@@H]7O)[C@H](O)[C@H]6O[C@H]6O[C@H](C)[C@@H](O)[C@H](O)[C@@H]6O)CC[C@]5(C)[C@H]4CC[C@]3(C)[C@H]1[C@@H]2C [POLYPHILLIN D] | 3.9 µM
